{"source": "patent US10960005B2", "about": "“Treatment of relapsed and/or refractory solid tumors and non-hodgkin's lymphomas” (CELGENE QUANTICEL RESEARCH, INC., priority 2016, dated 2021)", "key": {"[1]": {"settings": "QW 1.25 mg oral dose, 60-kg human, 80% oral bioavailability assumed"}, "[2]": {"tested_on": "MKL-1 hMCC cells", "assay": "hMCC cell proliferation inhibition (2D, CellTiter-Glo), MKL-1", "format": "cell-based, human", "settings": "MKL-1, 2D format, 7 days", "experimental": "MKL-1 hMCC cells were cultured in vitro in RPMI-1640 culture medium (Life Technologies, Carlsbad, Calif.) containing 100 units/mL penicdlin G sodium and 100 μg/mL streptomycin sulfate (cRPMI) supplemented with 10% fetal bovine serum (FBS). MS-1 hMCC cells were cultured in vitro in cRPMI supplemented with 20% FBS.\nFour to six replicates were performed at each concentration."}, "[3]": {"tested_on": "LXFS 573 SCLC patient-derived xenograft", "assay": "Efficacy in LXFS 573 SCLC PDX model", "format": "in vivo, mice", "settings": "for % TGI / TGI: Day 28"}, "[4]": {"tested_on": "NCI-H1417 SCLC xenograft", "settings": "for Median Tumor Volumes Diff.: Day 0 vs Day 65"}, "[5]": {"tested_on": "LU2527 lung NEC patient-derived xenograft", "assay": "Efficacy in LU2527 lung neuroendocrine carcinoma PDX model", "settings": "5 mg base/kg PO QD; Day 46"}, "[6]": {"tested_on": "gene expression (ST18, FREM2) in MKL-1 cells", "assay": "Gene expression modulation (RNA-seq, qRT-PCR) in cultured MKL-1 cells", "format": "cell-based, human", "settings": "10 and 100 nM, three days", "experimental": "(§1) 22, 66, or 200 nM for qRT-PCR analysis.\n(§2) Libraries were sequenced on an Illumina NextSeq® 500 System (Illumina, San Diego, Calif.) using 75 base paired-end RNA sequencing. Sequenced reads were mapped to the hg19 human genome build and differential expression was determined by analysis of variance across all replicates relative to the vehicle control\n(§3) Sequenced reads were mapped to the hg19 human genome build using the Spliced Transcripts Alignment to a Reference (STAR) software tool (©Alexander Dobin, 2009-2016) and transcript counts were normalized using the Empirical Analysis of Digital Gene Expression Data in R (edgeR) and Differential gene expression analysis based on the negative binomial distribution (DESeq2) software tools (©Bioconductor, 2003-2017). Differential expression was determined by analysis of variance across all replicates relative to the vehicle control."}, "[7]": {"tested_on": "NCI-H1417 SCLC xenograft", "format": "in vivo"}, "[8]": {"tested_on": "gene expression (ST18, FREM2) in MS-1 cells", "assay": "Gene expression modulation (RNA-seq, qRT-PCR) in cultured MS-1 cells", "format": "cell-based, human", "settings": "10 and 100 nM, three days", "experimental": "as §1, §2, §3"}, "[9]": {"assay": "Pharmacokinetics after single IV and oral dose, CD-1 mice", "format": "in vivo", "settings": "Mouse, female", "experimental": "AUClast=area under the plasma concentration-time curve from time zero to time of last measurable concentration; Cmax=maximum plasma concentration; F=oral bioavailability; hr=hour, PK=pharmacokinetic; SD=standard deviation; t1/2 z=apparent half-life of the terminal phase of the concentration-time curve; tmax=time of Cmax. In mouse, PK parameters were determined using composite plasma samples obtained from n=3animals/time point. In other species, PK parameters are from n=3 animals and values shown are mean and SD (in parentheses)."}, "[10]": {"tested_on": "NCI-H841 SCLC cell line", "assay": "Antiproliferative activity, NCI-H841", "format": "cell-based, human", "settings": "3D assay; Calcein AM"}, "[11]": {"tested_on": "LU1480 SCLC patient-derived xenograft", "assay": "Efficacy in LU1480 HuPrime SCLC PDX model", "format": "in vivo, mice"}, "[12]": {"tested_on": "ST18 and FREM2 expression in MKL-1 tumors", "assay": "In vivo xenograft dose-response of PD biomarker gene expression, MKL-1", "set-up": "species or system mice", "settings": "1, 2.5, or 5 mg/kg PO BID ×4.5; tumors 4 h after last dose", "from_the_text": "Female NSG mice bearing palpable hMCC MKL-1 and MS-1 tumors were randomized into four groups of three mice each. […] The fourth group was orally administered vehicle as a control on the BID schedule. Four hours after the last dosing, tumors were collected into RNA later and stored frozen.\nTotal RNA was eluted in RNase-free water and analyzed by qRT-PCR."}, "[13]": {"assay": "Hemodynamic and ECG parameters in anesthetized guinea pigs (IV infusion)", "settings": "for mean plasma concentration at end of infusion: 10 minutes", "experimental": "The effects of Compound Aon hemodynamic and ECG parameters were examined in anesthetized, male Dunkin Hartley guinea pigs. […] An escalating dose design was utilized in which doses were administered sequentially at 20-minute intervals. Animals were monitored throughout the experiment."}, "[14]": {"assay": "Exploratory toxicity study in dogs", "format": "in vivo", "settings": "0.5 mg/kg/dose QOD"}, "[15]": {"molecular_target": "MDR1 (human P-gp) MDCK cells (Homo sapiens (Human), UniProt P08183)", "sequence (P08183 whole entry)": "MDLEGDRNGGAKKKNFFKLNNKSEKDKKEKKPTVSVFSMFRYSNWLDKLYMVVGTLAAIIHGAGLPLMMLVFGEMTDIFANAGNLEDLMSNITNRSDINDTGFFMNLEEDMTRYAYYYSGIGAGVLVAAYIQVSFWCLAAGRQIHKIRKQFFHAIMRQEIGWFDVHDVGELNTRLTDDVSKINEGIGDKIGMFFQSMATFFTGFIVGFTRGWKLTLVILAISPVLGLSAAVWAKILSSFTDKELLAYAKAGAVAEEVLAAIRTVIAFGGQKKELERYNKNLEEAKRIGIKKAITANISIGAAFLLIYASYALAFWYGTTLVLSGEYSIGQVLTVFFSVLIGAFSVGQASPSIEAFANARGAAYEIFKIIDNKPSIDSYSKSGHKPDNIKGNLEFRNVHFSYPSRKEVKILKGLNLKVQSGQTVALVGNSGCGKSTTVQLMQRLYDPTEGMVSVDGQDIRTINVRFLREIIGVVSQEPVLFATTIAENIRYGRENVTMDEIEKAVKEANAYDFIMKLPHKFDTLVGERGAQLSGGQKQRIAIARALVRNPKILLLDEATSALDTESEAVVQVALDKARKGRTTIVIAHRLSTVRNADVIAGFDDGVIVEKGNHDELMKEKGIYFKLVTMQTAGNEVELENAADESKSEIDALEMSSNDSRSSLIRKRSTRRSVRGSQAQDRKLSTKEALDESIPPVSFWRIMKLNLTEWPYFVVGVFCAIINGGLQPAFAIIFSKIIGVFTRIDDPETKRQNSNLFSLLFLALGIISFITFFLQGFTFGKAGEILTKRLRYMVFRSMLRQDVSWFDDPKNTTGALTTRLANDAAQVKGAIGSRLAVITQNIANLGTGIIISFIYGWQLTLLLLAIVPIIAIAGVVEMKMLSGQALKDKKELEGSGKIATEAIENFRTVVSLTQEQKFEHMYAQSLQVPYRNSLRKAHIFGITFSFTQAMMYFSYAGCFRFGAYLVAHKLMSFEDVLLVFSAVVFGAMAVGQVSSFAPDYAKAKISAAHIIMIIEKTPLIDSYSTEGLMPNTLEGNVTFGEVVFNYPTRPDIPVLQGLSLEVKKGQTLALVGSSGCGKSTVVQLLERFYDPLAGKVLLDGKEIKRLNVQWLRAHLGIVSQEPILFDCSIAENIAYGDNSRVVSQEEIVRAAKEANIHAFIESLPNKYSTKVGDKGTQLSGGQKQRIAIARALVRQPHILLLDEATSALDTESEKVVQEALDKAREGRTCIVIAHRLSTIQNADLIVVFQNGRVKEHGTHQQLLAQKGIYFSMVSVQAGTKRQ", "assay": "Permeability in MDR1 (human P-gp) MDCK cells", "settings": "B→A direction"}, "[16]": {"tested_on": "LXFS 615 SCLC patient-derived xenograft", "settings": "5 mg base/kg; plasma after final dose"}, "[17]": {"tested_on": "H3K4me2 at ST18 and FREM2 gene loci in MS-1 cells", "assay": "ChIP-seq LSD1 occupancy and H3K4me2 status, MS-1", "format": "cell-based, human", "settings": "100 nM, 3 days"}, "[18]": {"tested_on": "LNCaP cells", "assay": "LNCaP cell proliferation with rapamycin", "format": "cell-based, human", "settings": "100 nM Compound A + 100 nM rapamycin vs rapamycin alone; 90 hours"}, "[19]": {"settings": "Compound A monotherapy 5 mg/kg PO 5 on/2 off"}, "[20]": {"settings": "etoposide 24 mg/kg SC QD×3 followed by Compound A 5 mg/kg PO 5 on/2 off"}, "[21]": {"settings": "after escalating IV doses to 20 mg base/kg"}}, "note": "Like-named read-outs stand apart in the source and are kept apart here.", "data": [{"compound": "COc1ccc(-c2c(-c3ccc(C#N)c(F)c3)nc(N3CCC(N)CC3)n(C)c2=O)cc1F", "note": "[Compound A]", "values": [{"measurement": "predicted steady state systemic exposure (AUCt)", "setting": "[1]", "result": 29, "unit": "ng·h/mL"}, {"measurement": "IC50", "setting": "[2]", "result": 18.4, "unit": "nM"}, {"measurement": "% TGI", "setting": "[3]; 5 mg base/kg PO QD × 28", "result": 72, "unit": "%"}, {"measurement": "TGI", "setting": "[3]; 5 mg base/kg oral", "result": 78, "unit": "%"}, {"measurement": "TGI", "setting": "[3]; 7.5 mg base/kg oral", "result": 58, "unit": "%"}, {"measurement": "% TGI", "setting": "[3]; 10 mg base/kg PO QD × 28", "result": 71, "unit": "%"}, {"measurement": "TGI", "setting": "[3]; 10 mg/kg oral", "result": 71, "unit": "%"}, {"measurement": "mean body weight losses", "setting": "[3]; mouse, in vivo", "result": "≤ 3", "unit": "%"}, {"measurement": "mean body weight gain by end of study", "setting": "[4]; 2.5 mg base/kg", "result": 1, "unit": "%"}, {"measurement": "Median Tumor Volumes Diff.", "setting": "[4]; 2.5 mg base/kg PO QD × 65", "result": 69.9, "unit": "mm^3"}, {"measurement": "mean body weight gain by end of study", "setting": "[4]; 5 mg base/kg", "result": 7.5, "unit": "%"}, {"measurement": "Median Tumor Volumes Diff.", "setting": "[4]; 5 mg base/kg PO QD × 65", "result": 92.3, "unit": "mm^3"}, {"measurement": "% TGI", "setting": "[5]", "result": 84, "unit": "%"}, {"measurement": "ST18 and FREM2 gene expression changes (upregulated)", "setting": "[6]", "result": "at least 2 fold"}, {"measurement": "% TGD", "setting": "[7]; [19]", "result": 335, "unit": "%"}, {"measurement": "TGD", "setting": "[7]; [19]", "result": 87, "unit": "days"}, {"measurement": "median TTE", "setting": "[7]; [19]", "result": 113, "unit": "days"}, {"measurement": "% TGD", "setting": "[7]; [20]", "result": 435, "unit": "%"}, {"measurement": "TGD", "setting": "[7]; [20]", "result": 113, "unit": "days"}, {"measurement": "median TTE", "setting": "[7]; [20]", "result": 139, "unit": "days"}, {"measurement": "ST18 and FREM2 gene expression changes (upregulated)", "setting": "[8]", "result": "at least 2 fold"}, {"measurement": "AUC∞", "setting": "[9]; single IV 5 mg base/kg", "result": 2664, "unit": "ng·h/mL"}, {"measurement": "CL", "setting": "[9]; single IV 5 mg base/kg", "result": 32, "unit": "mL/min/kg"}, {"measurement": "Vss", "setting": "[9]; single IV 5 mg base/kg", "result": 7.51, "unit": "L/kg"}, {"measurement": "t1/2,z", "setting": "[9]; single IV 5 mg base/kg", "result": 3.8, "unit": "h"}, {"measurement": "% F", "setting": "[9]; single oral 10 mg base/kg", "result": 38, "unit": "%"}, {"measurement": "Cmax", "setting": "[9]; single oral 10 mg base/kg", "result": 510, "unit": "ng/mL"}, {"measurement": "t1/2,z", "setting": "[9]; single oral 10 mg base/kg", "result": 1.7, "unit": "h"}, {"measurement": "tmax", "setting": "[9]; single oral 10 mg base/kg", "result": 0.5, "unit": "h"}, {"measurement": "IC50", "setting": "[10]", "result": "> 500000", "unit": "nM"}, {"measurement": "% TGI", "setting": "[11]; 10 mg base/kg PO QD × 21", "result": 72, "unit": "%"}, {"measurement": "TGI", "setting": "[11]; 10 mg base/kg orally for 15 days (second LU1480 experiment)", "result": 46, "unit": "%"}, {"measurement": "ST18 and FREM2 change in gene expression in vivo", "setting": "[12]", "result": "≥ 2", "unit": "fold"}, {"measurement": "mean plasma concentration at end of infusion", "setting": "[13]; 15 mg base/kg IV", "result": 4269, "unit": "ng/mL"}, {"measurement": "mean plasma concentration at end of infusion", "setting": "[13]; 20 mg base/kg IV", "result": 6707, "unit": "ng/mL"}, {"measurement": "maximum decrease in HR vs vehicle", "setting": "[13]; 20 mg base/kg IV, 9 minutes into 10-minute infusion", "result": 19, "unit": "%"}, {"measurement": "decrease in heart rate at end of monitoring period", "setting": "[13]; [21]", "result": 18, "unit": "%"}, {"measurement": "increase of QTcB interval at end of monitoring period", "setting": "[13]; [21]", "result": 10, "unit": "%"}, {"measurement": "primary findings", "setting": "[14]", "result": "Marked thrombocytopenia and acute hemorrhage in mesenteric and mandibular lymph nodes"}, {"measurement": "permeability", "setting": "[15]", "result": 16.5, "unit": "×10⁻⁶ cm/s"}, {"measurement": "AUC0-24", "setting": "[16]", "result": "1,617 ng·hr/mL"}, {"measurement": "H3K4me2 at the LSD1 binding site of ST18 gene", "setting": "[17]", "result": "increased H3K4me2"}, {"measurement": "LNCaP cell proliferation", "setting": "[18]", "result": "greater inhibition of LNCap cell proliferaton"}]}]}
